Experimental data from patent US20100151004A1, “MODULATION OF DRUG SENSITIVITY” (UNIVERSITY OF MEDICINE AND DENTISTRY OF NEW JERSEY, priority 2007, published 2010).
Entries after “also recorded” stand apart in the source; their conditions may differ.

Legend:
[1] = tested on: UMPK mRNA in HCT-8/4hFU tumors; assay: UMPK mRNA in xenograft tumors after DAC treatment (Q-RT-PCR); format: in vivo, mice
Experimental: (§1) Total RNA was extracted from 1-5×10^6 cells or powdered tumors using Trizol Reagent (Invitrogen, Carlsbad, Calif., USA) and run on 1% folmaldehyde-agarose gel to assess the quality of the RNA. Gene specific primers and fluorescent-labeled probe (FAM and TAMRA) were designed using Primer Express Software from ABI (Applied Biosystems, Foster City, Calif., USA). 50 ng of RNA was amplified in one-step RT-PCR reaction (Applied Biosystems, Foster City, Calif., USA) using TaqMan Real-Time PCR machine (7000 SDS). 18SrRNA (FAM) (Applied Biosystems, Foster City, Calif., USA) or β-actin (FAM-TAMRA) was used to normalize the results. Delta delta Ct method was used to calculate relative fold change in mRNA level (Livak K J, Schmittgen T D. Analysis of relative gene expression data using real-time quantitative PCR and the 2(−Delta Delta C(T)) Method. Methods 2001 December; 25(4):402-8). The sequence of UMPK forward primer is 5′-AAGAAGGAAAGATTGTACCAGTTGAGA-3′ (SEQ ID NO: 7), reverse primer 5′-GGAAACCCATCAATCAAGAATTTATT-3′ (SEQ ID NO: 8), and probe 5-FAM-AGAGGGAAATGGATCAGACAATGGCTGC-TAMRA-3′ (SEQ ID NO: 9).
(§2) HCT-8/P or HCT-8/4hFU cells (2.5×10^6) were injected subcutaneously into SKID nu/nu mice (Taconic, Germantown, N.Y., USA). When tumors were palpable animals were randomized into 4 groups (5-10 animals per group) and treated with DAC (Tuesday, Wednesday, Thursday, 0.5 mg/kg, i.p.), or 5-FU (Friday, 50 mg/kg, i.p.), or DAC & 5-FU, or PBS as a control. Measurements of tumor size and animal weight were performed every 3-4 days. Two independent experiments were performed and animals received either 1 or 2 courses of treatment (1 or 2 weeks) followed by an additional week of observation. In order to assay UMPK induction in tumors, animals from DAC alone, and DAC & 5-FU groups received additional course of DAC treatment towards the end of experiment. 24 hours after the third dose of DAC was administered animals were anesthetized, and tumors harvested, washed in PBS and flash frozen in LN2. Prior to the experiment tumors were grounded to a powder in LN2. Following the tumor harvest or if tumor diameter is greater than 1 cm, or greater than 15% weight loss occurred the animals were euthanized. All experiments were performed according to the protocol approved by The Institutional Animal Care and Use Committee at RWJMS.

[2] = tested on: UMPK in HCT-8/P tumors; assay: as above; format: in vivo, mice; conditions: HCT-8/P group
Experimental: as §1, §2

[3] = tested on: UMPK expression in HCT-8/P cells; assay: UMPK expression after DAC exposure in cultured cells; format: cell-based, human; conditions: low-dose DAC for 24 h
Experimental: (§3) Cells (1-5×10^6) were trypsinized, washed twice with PBS and kept frozen in −80° C. until used. Cell pellets or powdered tumors (vide infra) were thawed and resuspended in 0.5 ml of RIPA buffer (50 mM Tris-HCl buffer pH 7.4, 3 mM sodium fluoride and 4 mM DTT) supplemented with protease inhibitors. Samples were sonicated (2×20 s, 60% power) on ice and centrifuged for 20 min at 20,000 rpm. […] of lysate was loaded onto 10% SDS-PAGE gel and after transfer to nitrocellulose probed with anti-UMPK polyclonal antibody (1:1000) for 2 hours (gift of Dr Y. C. Cheng, Yale University) and secondary ant-rabbit antibody (1:5000) for 1 hour (Sigma St Louis, Mo., USA) or anti-α-tubulin (1:10000) for 1 hour (Sigma, St Louis, Mo., USA) and anti-mouse antibody (1:2000) for 0.5 h (Santa Cruz, Calif., USA) as a control.
(§4) Total RNA was extracted from 1-5×10^6 cells or powdered tumors using Trizol Reagent (Invitrogen, Carlsbad, Calif., USA) and run on 1% folmaldehyde-agarose gel to assess the quality of the RNA. […] Delta delta Ct method was used to calculate relative fold change in mRNA level (Livak K J, Schmittgen T D. Analysis of relative gene expression data using real-time quantitative PCR and the 2(−Delta Delta C(T)) Method. Methods 2001 December; 25(4):402-8). […]

[4] = tested on: HCT-8/P cells; assay: MTS cytotoxicity assay, 4 h bolus drug exposure
[5] = tested on: UMPK promoter and first exon CpG sites in HCT-8/4hFU cells; assay: Pyro Q-CpG analysis of methylation; format: cell-based, human; conditions: HCT-8/4hFU + 0.5 μM DAC for 24 h
Experimental: DNA was extracted from tumors or cells using standard phenol-chlorophorm-isoamyl alcohol extraction (Invitrogen, Carlsbad, Calif., USA). 2 μg of sample DNA or 1 μg of control DNA was bisulfite modified using EZ DNA Methylation Kit (Zymo Research, Orange, Calif., USA). 1 ul out of 10 ul of post bisulfite modified DNA was used for PCR. Bisulfite treated fetal cell DNA and in vitro methylated human DNA (Chemicon, Millipore, Billerica, Mass.) were used in the assay development and PCR bias testing. The following reagents were mixed together in preparation for the Pyrosequencing reaction: Streptavidin beads 2 μl, 2× binding buffer 40 μl, PCR product 10 μl, water 28 μl. The assay was performed by EpigenDx (Worcester, Mass., USA) using PSQHS 96 System. Methylation of 42 CpG sites was analyzed.

[6] = tested on: HCT-8/4hFU cells; assay: MTS cytotoxicity assay, 4 h bolus drug exposure; format: cell-based, human
Text: Cancer Res 1992 Apr. […] Louis, Mo., USA).

[7] = tested on: HCT-8/P tumor; assay: Colorectal cancer xenograft model, tumor volume; format: in vivo, mice
Experimental: (§5) Two independent experiments were performed and animals received either 1 or 2 courses of treatment (1 or 2 weeks) followed by an additional week of observation. […] Prior to the experiment tumors were grounded to a powder in LN2. Following the tumor harvest or if tumor diameter is greater than 1 cm, or greater than 15% weight loss occurred the animals were euthanized. All experiments were performed according to the protocol approved by The Institutional Animal Care and Use Committee at RWJMS. […] Gels were quantitated using ChemiDoc XRS machine and Quantity One 1-D analysis software (BioRad, Hercules, Calif., USA).

[8] = tested on: HCT-8/4hFU tumor; assay: Colorectal cancer xenograft model, tumor volume; format: in vivo, mice; conditions: for tumor response (tumor volume): one course, DAC 3×0.5 mg/kg i.p., 5-FU 1×50 mg/kg i.p.; for tumor response (tumor growth): two courses, DAC 3×0.5 mg/kg/course i.p., 5-FU 1×50 mg/kg/course i.p.
Experimental: as §5

[9] = tested on: UMPK expression in HCT-8/4hFU cells; assay: UMPK mRNA (Q-RT-PCR) and protein (Western blotting) after DAC exposure in cultured cells; format: cell-based, human; conditions: low-dose DAC for 24 h
Experimental: as §3, §4

[10] = tested on: HCT-8/4hFU cells; assay: MTS cytotoxicity assay, continuous 5-FU exposure (4 days); format: cell-based, human
Experimental: Number of viable cells was determined by MTS assay.

[11] = tested on: colorectal cancer; conditions: patients, typical clinical response; cited from earlier work
[12] = DAC 0.0005 μM-0.5 μM, 24 h exposure
[13] = one course, DAC 3×0.5 mg/kg i.p., 5-FU 1×50 mg/kg i.p.
[14] = two courses, DAC 3×0.5 mg/kg/course i.p., 5-FU 1×50 mg/kg/course i.p.

## Nc1ncn([C@H]2C[C@H](O)[C@@H](CO)O2)c(=O)n1 [DAC, 5-Azadeoxycytidine]
[1]; after one course of DAC (3×0.5 mg/kg)
  increase in UMPK mRNA as compared to untreated tumor: 4 fold
[1]; after two and three weeks of DAC treatment
  increase in UMPK mRNA as compared to untreated tumor: ≤ 20 fold
[1]; animals of the two-course experiment, relative to untreated HCT-8/4hFU tumors
  average increase of UMPK in tumors of the group of animals: 8.5 fold
[2]
  increase of UMPK after DAC treatment: No increase
[3]
  UMPK expression: No increase
[4]; [12]
  cell kill: less than 20%
[4]; DAC 24 h pretreatment, then 5-FU or 5-FUR 4 h
  effect of DAC on sensitivity of HCT-8/P cells to 5-FU or 5-FUR: Much less of an effect; also recorded: do not show increased sensitivity
[5]
  Mean methylation across 36 CpG sites: 2.74
[6]; 0.02 μM DAC 24 h pretreatment
  restoration of sensitivity of HCT-8/4hFU cells to that seen in HCT-8/P cells: able to restore the sensitivity
[6]; [12]
  cell kill: less than 20%
[6]; DAC 24 h pretreatment, then 5-FU 4 h
  effect of DAC pretreatment on sensitivity to bolus 5-FU: makes HCT-8/4hFU cells sensitive
[6]; DAC 24 h pretreatment, then 5-FUR 4 h
  effect of DAC pretreatment on sensitivity to 5-FUR: makes HCT-8/4hFU cells sensitive
[7]; [13]
  tumor response (tumor growth): most significant delay in the tumor growth
[7]; [14]
  tumor response (tumor growth): most significant effect
[8]
  tumor response (tumor volume): resistant
  tumor response (tumor growth): No significant response
[9]
  UMPK mRNA as well as protein levels: dose dependent increase

## O=c1[nH]c(=O)n([C@@H]2O[C@H](CO)[C@@H](O)[C@H]2O)cc1F [5-FUR, 5-fluorouridine]
[6]; 5-FUR 4 h exposure
  increase in the IC50 value, HCT-8/4hFU as compared to HCT-8/P cells: ≤ 10 fold

## O=c1[nH]cc(F)c(=O)[nH]1 [5-FU, 5-Fluorouracil]
[10]
  sensitivity to continuous exposure to 5-FU, HCT-8/4hFU versus HCT-8/P: equally sensitive
[11]
  response rate: less than 30%
[6]; bolus 4 h exposure, cell viability assay
  fold resistance to bolus 5-FU, HCT-8/4hFU versus HCT-8/P: 3-4 fold
[7]; [13]
  tumor response (tumor growth): responded
[7]; [14]
  tumor response (tumor growth): responded
[8]
  tumor response (tumor volume): resistant
  tumor response (tumor growth): partial response
